From US20080207578A1, “METHOD OF INDUCING APOPTOSIS IN CANCER TREATMENT BY USING CUCURBITACINS” (priority 2006, published 2008) come the findings set out here.

Experiment [1] has as its system HL60 (TB) leukemia cell line. The experiment is described as follows: Cell cycle analysis by PI flow cytometry, HL60 (TB). Conditions: 48 hours. The class given is cell-based, human. (In general: Flow cytometry measures light scatter and fluorescence of single cells or particles in a stream.)
The subject of experiment [2] is 59 human cancer cell lines. The experiment is described as follows: Sulforhodamine B (SRB) growth inhibition assay, 59-NCI Cancer Cell Line Panel. Conditions: 0.488 to 4000 nM, 48 hours. The class given is cell-based. An excerpt:
(§1) Human cancer cell lines from the 59-NCl Cancer Cell Line Panel including leukemia, melanoma and cancers of breast, brain, colon, lung, ovary, prostate and kidney, were purchased from the National Institute of Cancer (USA). The growth inhibition (GI50) of these cell lines treated with cucurbitacin B and cucurbitacin D in various concentrations was investigated.
(§2) 59 human cancer cell lines were maintained in RPMI 1640 (Invitrogen Life Technologies, Calif., USA) supplemented with 5% Fetal Bovine Serum, 2 mM L-glutamine and 1% Penicillin/Streptomycin (Invitrogen Life Technologies) at 37° C. with 5% CO2. All chemicals were purchased from Sigma (St. Louis, Mo., USA) unless specified otherwise.
(§3) Sulforhodamine B (SRB) assay was applied to determine the cytostatic effect of cucurbitacin B and cucurbitacin D. SRB is a dye which binds to cellular proteins and will be dissolved in base. The biomass of total protein can be measured at 520 nm using a plate reader.
(§4) Cells were inoculated into 96-well microtiter plates including “Time zero” (Tz) plates in 100 μl at cell concentrations from 5000 to 40,000 cells per well according to NCI guideline. The cells were incubated at 37° C. with 5% CO2 for 24 hours. […] Bound SRB was solubilized with 100-200 ul per well of 10 mM trizma base and absorbance was measured at a wavelength of 520 nm. The percentage of growth inhibition was calculated as follows: […]

The test system of experiment [3] is prostate cancer cell lines. Description: SRB growth inhibition assay, prostate cancer group. The format is cell-based, human. Conditions: most sensitive type to cucurbitacin B, 48 hours.
From the text: as §1, §2, §3, §4

Experiment [4] concerns PARP in HL 60 human leukemia cells. The experiment is described as follows: Western blot of PARP cleavage in HL60 cells. The format is cell-based. Here is the method: (§5) Control cells, as well as cells treated with cucurbitacin B or cucurbitacin D, were harvested and collected by centrifugation. Whole cell extracts were then prepared by lysing the cells using 4% sodium dodecyl sulfate (SDS) gel sample buffer. Cell extracts were boiled for 10 min and chilled on ice, subjected to 12% SDS-polyacrylamide gel electrophoresis, and transferred to a PVDF membrane. Each membrane was cut into to two pieces with one piece incubated at 4^˜ overnight with antibodies against cell cycle signaling proteins, such as ERK, phosphorlated-ERK, p38, phosphorlated-p38, Cyclin E, Retinoblastoma, phosphalated-Retinoblastoma and c-myc, and apoptotic protein (PARP). β-actin was used as a control for protein loading. All antibodies were obtained from Cell signaling Technologies (USA). Then membranes were incubated at 37^˜ for 1 h with secondary antibody conjugated with peroxidase, and the signal was detected using chemiluminescence detection reagent. The relative protein level was calculated as the ratio of the optical density of the protein of interest to that of β-actin.
In general terms: Immunoblotting shows a protein as a band on a membrane.

Experiment [5] concerns human cancer cell lines (18 selected from the 59-NCI panel). The experiment is described as follows: Annexin V-FITC/propidium iodine flow cytometric apoptosis assay, 18 selected cell lines. Conditions: 48 hours; for cell lines in which apoptosis was induced: GI50, 1/2 GI50 and 1/4 GI50 of particular cell line; for dose dependence of apoptosis induction (in words): three concentrations. The class given is cell-based. Here is the method:
Human cancer cell lines from the 59-NCI Cancer Cell Line Panel including leukemia, melanoma and cancers of breast, brain, colon, lung, ovary, prostate and kidney were purchased from the National Institute of Cancer. […] They were treated with cucurbitacin B and cucurbitacin D at three different concentrations to elucidate their ability to induce any changes in cell cycle.
Cancer cell lines were maintained in RPMI 1640 supplemented with 5% Fetal Bovine Serum, 2 mM L-glutamine and 1% Penicillin/Streptomycin at 37° C. with 5% CO2. All chemicals were purchased from Sigma unless specified otherwise.
Cells were inoculated into tissue culture flask at cell concentrations from 50000 to 400,000 cells/ml according to the NCl guideline. The cells were incubated at 37° C. with 5% CO2 for 24 hours. Cucurbitacin B and cucurbitacin D were added to the cells of final concentrations ranging from 6 to 350 nM (GI50, ½ GI50 and ¼ GI50 of particular cell line) for 48 hours at 37° C. with 5% CO2. Cells ([…]) were then harvested and stained with 5 μl Annexin V-FITC and 10 μl propidium iodine (Becton Dickinson, Calif., USA) for 15 minutes at room temperature. Ten thousands events were collected by the FACScaliber and the percentage of different cell populations were analyzed by the CellQuest™ software (Becton Dickinson).

The subject of experiment [6] is phosphorylated-ERK, cyclin E, phosphorylated-Rb, c-myc in HL60 cells. The experiment is described as follows: Western blot of MAPK / cell cycle signaling proteins in HL60 cells. The class given is cell-based, human. Here is the method: as §5
Experiment [7] concerns human cancer cell lines (18 selected from the 59-NCI panel). Description: Cell cycle analysis by PI flow cytometry, 18 selected cell lines. The format is cell-based. As to conditions: GI50, 1/2 GI50 and 1/4 GI50 of particular cell line, 48 hours.
In a further experiment the test system is SF-295 CNS cell line. The experiment is described as follows: Cell cycle analysis by PI flow cytometry, SF-295. The class given is cell-based, human. As to conditions: SF-295, 48 hours.
Another experiment deals with melanoma cell lines. The experiment is described as follows: SRB growth inhibition assay, melanoma group. The format is cell-based, human. As to conditions: most sensitive type to cucurbitacin D, 48 hours.
From the text: as §1, §2, §3, §4

Consider `CC(=O)OC(C)(C)/C=C/C(=O)[C@](C)(O)[C@H]1[C@H](O)C[C@@]2(C)[C@@H]3CC=C4[C@H](C[C@H](O)C(=O)C4(C)C)[C@]3(C)C(=O)C[C@]12C` [cucurbitacin B], for which the “effect on cell cycle (in words)” value in [1] was “G2/M arrest and endoreduplication”. Further, in [2], the “growth inhibition of 59 cancer cell lines (in words)” value is listed as “inhibited the growth of 59 cancer cell lines dose-dependently”. Moreover, the GI50 – broadly, the concentration giving 50% growth inhibition – in experiment [3] was determined as 17 nM. Moreover, in experiment [4], the “PARP (apoptosis marker) in western blot (in words)” value is “cleavage of PARP”. Also, in experiment [5], the “cell lines in which apoptosis was induced” value is 9 out of 18 and the “dose dependence of apoptosis induction (in words)” value is “induced apoptosis in a dose-dependent manner”. Besides, in experiment [6], the “ERK (in words)” value is recorded as “ERK activation”, the “c-myc (in words)” value was “down-regulation of c-myc”, the “cyclin E (in words)” value was “cyclin E down-regulation” and the “retinoblastoma phosphorylation (in words)” value was “inhibition of retinoblastoma's phosphorylation”. For the same molecule, the “cell lines arrested in G2/M” value in experiment [7] is on record as 6 out of 18.
Turning to `CC(C)(O)/C=C/C(=O)[C@](C)(O)[C@H]1[C@H](O)C[C@@]2(C)[C@@H]3CC=C4[C@@H](C[C@H](O)C(=O)C4(C)C)[C@]3(C)C(=O)C[C@]12C` [cucurbitacin D], the “effect on cell cycle (in words)” value in the experiment with SF-295 CNS cell line was “G2/M arrest and endoreduplication”. Further, the “growth inhibition of 59 cancer cell lines (in words)” value in experiment [2] is on record as “inhibited the growth of 59 cancer cell lines dose-dependently”. Further, the “PARP (apoptosis marker) in western blot (in words)” value in [4] is reported as “cleavage of PARP”. In [5], the “cell lines in which apoptosis was induced” value is 11 out of 18 and the “dose dependence of apoptosis induction (in words)” value was “induced apoptosis in a dose-dependent manner”. In [6], the “ERK (in words)” value is recorded as “ERK activation”, the “c-myc (in words)” value is “down-regulation of c-myc”, the “cyclin E (in words)” value was “cyclin E down-regulation” and the “retinoblastoma phosphorylation (in words)” value is on record as “inhibition of retinoblastoma's phosphorylation”. For the same molecule, the “cell lines arrested in G2/M” value in experiment [7] is recorded as 9 out of 18. Besides, growth in the experiment with melanoma cell lines was halved (GI50) at 60 nM.
